pIC50: −log10 of the molar value. Read-outs that look alike come from different tables or passages of the source.
Legend:
[1] = biological target: T1, rat brain N-type calcium channel subunits (α1B+α2δ+β1b) (Rattus norvegicus, UniProt Q02294); experiment: N-type calcium channel block, whole cell patch clamp in HEK 293 cells; format: cell-based; settings: holding −80 mV to +10 mV, 5 mM Ba
T1 construct: expressed in transfected cells; host or cells: HEK 293
Method: Antagonist activity was measured using whole cell patch recordings on human embryonic kidney cells either stably or transiently expressing rat α1B+α2δ+β1b channels (N-type channels) with 5 mM barium as a charge carrier. P/Q-type channels (α1A+α2δ+β1b cDNA subunits) and L-type channels (α1C+α2δ+β1b cDNA subunits) were also transiently expressed in HEK 293 cells.
For transient expression, host cells, such as human embryonic kidney cells, HEK 293 (ATCC# CRL 1573) were grown in standard DMEM medium supplemented with 2 mM glutamine and 10% fetal bovine serum. HEK 293 cells were transfected by a standard calcium-phosphate-DNA coprecipitation method using the rat α1B+β1b+α2δ N-type calcium channel subunits in a vertebrate expression vector (for example, see Current Protocols in Molecular Biology).
After an incubation period of from 24 to 72 hrs the culture medium was removed and replaced with external recording solution (see below). Whole cell patch clamp experiments were performed using an Axopatch 200B amplifier (Axon Instruments, Burlingame, Calif.) linked to an IBM compatible personal computer equipped with pCLAMP software. Borosilicate glass patch pipettes (Sutter Instrument Co., Novato, Calif.) were polished (Microforge, Narishige, Japan) to a resistance of about 4 MΩ when filled with cesium methanesulfonate internal solution (composition in MM: 109 CsCH3 SO4, 4 MgCl2, 9 EGTA, 9 HEPES, pH 7.2). Cells were bathed in 5 mM Ba^++ (in mM: 5 BaCl2, 1 MgCl2, 10 HEPES, 40 tetraethylammonium chloride, 10 glucose, 87.5 CsCl pH 7.2). […] Drugs were perfused directly into the vicinity of the cells using a microperfusion system.
Normalized dose-response curves were fit (Sigmaplot 4.0, SPSS Inc., Chicago, Ill.) by the Hill equation to determine IC50 values. Steady-state inactivation curves were plotted as the normalized test pulse amplitude following 5 s inactivating prepulses at +10 mV increments. Inactivation curves were fit (Sigmaplot 4.0) with the Boltzman equation, Ipeak (normalized)=1/(1+exp((V−Vh)z/25.6)), where V and Vh are the conditioning and half inactivation potentials, respectively, and z is the slope factor.
N-type calcium channel blocking activity was assayed in human embryonic kidney cells, HEK 293, stably transfected with the rat brain N-type calcium channel subunits (α1B+α2δ+β1b cDNA subunits). Alternatively, N-type calcium channels (α1B+α2δ+β1b cDNA subunits), L-type channels (α1C+α2δ+β1b cDNA subunits) and P/Q-type channels (α1A+α2δ+β1b cDNA subunits) were transiently expressed in HEK 293 cells. Briefly, cells were cultured in Dulbecco's modified eagle medium (DMEM) supplemented with 10% fetal bovine serum, 200 U/ml penicillin and 0.2 mg/ml streptomycin at 37° C. with 5% CO2. At 85% confluency cells were split with 0.25% trypsin/1 mM EDTA and plated at 10% confluency on glass coverslips. At 12 hours the medium was replaced and the cells transiently transfected using a standard calcium phosphate protocol and the appropriate calcium channel cDNA's. Fresh DMEM was supplied and the cells transferred to 28° C./5% CO2. Cells were incubated for 1 to 2 days to whole cell recording.
Whole cell patch clamp experiments were performed using an Axopatch 200B amplifier (Axon Instruments, Burlingame, Calif.) linked to a personal computer equipped with pCLAMP software. The external and internal recording solutions contained, respectively, 5 mM BaCl2, […], 10 mM HEPES, 40 mM TEACl, 10 mM glucose, 87.5 mM CsCl (pH 7.2) and 108 mM CsMS, 4 mM MgCl2, 9 mM EGTA, 9 mM HEPES (pH 7.2). Currents were typically elicited from a holding potential of −80 mV to +10 mV using Clampex software (Axon Instruments).

[2] = biological target: T2, human α1G T-type channels (Homo sapiens, UniProt O43497); experiment: Block of α1G T-type channels, whole-cell patch clamp in HEK cells; format: cell-based
T2 construct: expressed in transfected cells
Method: Standard patch-clamp techniques were employed to identify blockers of T-type currents. Briefly, previously described HEK cell lines stably expressing human α1G T-type channels were used for all the recordings (passage #: 4-20, 37° C., 5% CO2). To obtain T-type currents, plastic dishes containing semi-confluent cells were positioned on the stage of a ZEISS AXIOVERT S100 microscope after replacing the culture medium with external solution (see below). Whole-cell patches were obtained using pipettes (borosilicate glass with filament, O.D.: 1.5 mm, I.D.: 0.86 mm, 10 cm length), fabricated on a SUTTER P-97 puller with resistance values of ˜5 MΩ (see below for internal solution).
In the non-inactivating protocol, the holding potential is set at −110 mV and with a pre-pulse at −100 mV for 1 second prior to the test pulse at −40 mV for 50 ms. […]
Test compounds were dissolved in external solution, 0.1-0.01% DMSO. After ˜10 min rest, they were applied by gravity close to the cell using a WPI microfil tubing. The “non-inactivated” pre-pulse was used to examine the resting block of a compound. The “inactivated” protocol was employed to study voltage-dependent block. However, the initial data shown below were mainly obtained using the non-inactivated protocol only. IC50 values are shown for various compounds of the invention in Table 6.

[3] = low frequency stimulation 0.067 Hz (tonic block), read-out: IC50 at 0.067 Hz
[4] = inactivation protocol (voltage-dependent block), read-out: IC50 at −80 mV
[5] = non-inactivating protocol, pre-pulse −100 mV (resting block), read-out: IC50 at −100 mV
[6] = pulse frequency 0.2 Hz (frequency dependent block), read-out: IC50 at 0.2 Hz

T2 sequence (O43497 whole entry): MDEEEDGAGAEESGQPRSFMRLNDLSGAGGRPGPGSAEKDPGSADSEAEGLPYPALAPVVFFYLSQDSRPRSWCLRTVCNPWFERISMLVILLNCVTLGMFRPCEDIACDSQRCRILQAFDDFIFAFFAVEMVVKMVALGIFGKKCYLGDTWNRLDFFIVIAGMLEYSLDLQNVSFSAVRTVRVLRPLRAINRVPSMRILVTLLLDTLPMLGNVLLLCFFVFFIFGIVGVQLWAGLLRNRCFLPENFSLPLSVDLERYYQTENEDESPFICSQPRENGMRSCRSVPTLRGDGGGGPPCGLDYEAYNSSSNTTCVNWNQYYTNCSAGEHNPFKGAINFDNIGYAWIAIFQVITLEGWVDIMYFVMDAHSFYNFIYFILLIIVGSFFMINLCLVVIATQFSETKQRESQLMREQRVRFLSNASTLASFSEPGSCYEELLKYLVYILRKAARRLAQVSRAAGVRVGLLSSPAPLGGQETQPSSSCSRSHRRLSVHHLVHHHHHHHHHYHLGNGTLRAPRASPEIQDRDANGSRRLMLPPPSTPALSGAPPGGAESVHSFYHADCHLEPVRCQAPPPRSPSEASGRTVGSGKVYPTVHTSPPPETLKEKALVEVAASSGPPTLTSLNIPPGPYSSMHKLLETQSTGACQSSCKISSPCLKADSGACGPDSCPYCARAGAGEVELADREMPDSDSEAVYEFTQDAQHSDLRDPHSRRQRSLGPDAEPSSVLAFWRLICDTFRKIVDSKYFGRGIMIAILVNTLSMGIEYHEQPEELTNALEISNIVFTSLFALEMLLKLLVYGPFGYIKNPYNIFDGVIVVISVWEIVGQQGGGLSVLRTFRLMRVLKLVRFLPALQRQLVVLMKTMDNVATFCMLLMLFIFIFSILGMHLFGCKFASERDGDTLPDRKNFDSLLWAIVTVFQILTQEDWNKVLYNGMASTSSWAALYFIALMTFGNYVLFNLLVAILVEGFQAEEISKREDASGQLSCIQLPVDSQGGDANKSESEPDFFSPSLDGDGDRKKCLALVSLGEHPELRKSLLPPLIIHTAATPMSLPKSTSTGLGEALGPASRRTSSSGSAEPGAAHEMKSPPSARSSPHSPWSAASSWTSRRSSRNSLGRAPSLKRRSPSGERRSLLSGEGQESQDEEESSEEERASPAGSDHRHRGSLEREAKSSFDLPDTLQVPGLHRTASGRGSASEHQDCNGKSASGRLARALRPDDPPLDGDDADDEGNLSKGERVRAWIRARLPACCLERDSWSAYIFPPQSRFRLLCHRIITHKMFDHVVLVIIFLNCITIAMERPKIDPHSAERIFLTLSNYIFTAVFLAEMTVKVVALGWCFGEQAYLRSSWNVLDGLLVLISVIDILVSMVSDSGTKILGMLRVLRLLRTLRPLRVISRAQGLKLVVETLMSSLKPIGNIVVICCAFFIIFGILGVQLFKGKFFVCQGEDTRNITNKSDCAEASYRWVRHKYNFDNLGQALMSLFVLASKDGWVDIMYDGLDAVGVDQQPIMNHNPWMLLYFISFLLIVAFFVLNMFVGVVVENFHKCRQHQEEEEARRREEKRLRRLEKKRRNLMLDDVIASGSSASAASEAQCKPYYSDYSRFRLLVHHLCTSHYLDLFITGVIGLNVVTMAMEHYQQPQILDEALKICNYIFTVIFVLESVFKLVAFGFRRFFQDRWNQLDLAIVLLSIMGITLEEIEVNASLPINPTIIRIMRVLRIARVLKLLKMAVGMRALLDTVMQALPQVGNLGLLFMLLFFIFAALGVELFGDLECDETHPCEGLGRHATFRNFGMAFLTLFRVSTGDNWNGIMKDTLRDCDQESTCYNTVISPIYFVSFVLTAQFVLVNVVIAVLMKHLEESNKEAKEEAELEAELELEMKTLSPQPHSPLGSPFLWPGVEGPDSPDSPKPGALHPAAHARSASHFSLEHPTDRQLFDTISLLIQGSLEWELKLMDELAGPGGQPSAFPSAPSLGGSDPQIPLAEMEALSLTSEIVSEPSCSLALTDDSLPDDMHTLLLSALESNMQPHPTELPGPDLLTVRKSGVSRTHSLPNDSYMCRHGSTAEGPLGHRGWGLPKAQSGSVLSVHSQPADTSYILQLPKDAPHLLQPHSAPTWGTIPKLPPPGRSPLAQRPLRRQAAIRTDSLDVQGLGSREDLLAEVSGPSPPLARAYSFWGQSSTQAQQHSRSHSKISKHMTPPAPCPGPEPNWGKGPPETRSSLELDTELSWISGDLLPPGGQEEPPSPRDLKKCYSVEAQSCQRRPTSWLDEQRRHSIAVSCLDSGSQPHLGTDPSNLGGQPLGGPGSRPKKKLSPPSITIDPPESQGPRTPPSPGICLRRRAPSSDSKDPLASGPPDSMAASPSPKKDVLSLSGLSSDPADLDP
T1 sequence (Q02294 whole entry): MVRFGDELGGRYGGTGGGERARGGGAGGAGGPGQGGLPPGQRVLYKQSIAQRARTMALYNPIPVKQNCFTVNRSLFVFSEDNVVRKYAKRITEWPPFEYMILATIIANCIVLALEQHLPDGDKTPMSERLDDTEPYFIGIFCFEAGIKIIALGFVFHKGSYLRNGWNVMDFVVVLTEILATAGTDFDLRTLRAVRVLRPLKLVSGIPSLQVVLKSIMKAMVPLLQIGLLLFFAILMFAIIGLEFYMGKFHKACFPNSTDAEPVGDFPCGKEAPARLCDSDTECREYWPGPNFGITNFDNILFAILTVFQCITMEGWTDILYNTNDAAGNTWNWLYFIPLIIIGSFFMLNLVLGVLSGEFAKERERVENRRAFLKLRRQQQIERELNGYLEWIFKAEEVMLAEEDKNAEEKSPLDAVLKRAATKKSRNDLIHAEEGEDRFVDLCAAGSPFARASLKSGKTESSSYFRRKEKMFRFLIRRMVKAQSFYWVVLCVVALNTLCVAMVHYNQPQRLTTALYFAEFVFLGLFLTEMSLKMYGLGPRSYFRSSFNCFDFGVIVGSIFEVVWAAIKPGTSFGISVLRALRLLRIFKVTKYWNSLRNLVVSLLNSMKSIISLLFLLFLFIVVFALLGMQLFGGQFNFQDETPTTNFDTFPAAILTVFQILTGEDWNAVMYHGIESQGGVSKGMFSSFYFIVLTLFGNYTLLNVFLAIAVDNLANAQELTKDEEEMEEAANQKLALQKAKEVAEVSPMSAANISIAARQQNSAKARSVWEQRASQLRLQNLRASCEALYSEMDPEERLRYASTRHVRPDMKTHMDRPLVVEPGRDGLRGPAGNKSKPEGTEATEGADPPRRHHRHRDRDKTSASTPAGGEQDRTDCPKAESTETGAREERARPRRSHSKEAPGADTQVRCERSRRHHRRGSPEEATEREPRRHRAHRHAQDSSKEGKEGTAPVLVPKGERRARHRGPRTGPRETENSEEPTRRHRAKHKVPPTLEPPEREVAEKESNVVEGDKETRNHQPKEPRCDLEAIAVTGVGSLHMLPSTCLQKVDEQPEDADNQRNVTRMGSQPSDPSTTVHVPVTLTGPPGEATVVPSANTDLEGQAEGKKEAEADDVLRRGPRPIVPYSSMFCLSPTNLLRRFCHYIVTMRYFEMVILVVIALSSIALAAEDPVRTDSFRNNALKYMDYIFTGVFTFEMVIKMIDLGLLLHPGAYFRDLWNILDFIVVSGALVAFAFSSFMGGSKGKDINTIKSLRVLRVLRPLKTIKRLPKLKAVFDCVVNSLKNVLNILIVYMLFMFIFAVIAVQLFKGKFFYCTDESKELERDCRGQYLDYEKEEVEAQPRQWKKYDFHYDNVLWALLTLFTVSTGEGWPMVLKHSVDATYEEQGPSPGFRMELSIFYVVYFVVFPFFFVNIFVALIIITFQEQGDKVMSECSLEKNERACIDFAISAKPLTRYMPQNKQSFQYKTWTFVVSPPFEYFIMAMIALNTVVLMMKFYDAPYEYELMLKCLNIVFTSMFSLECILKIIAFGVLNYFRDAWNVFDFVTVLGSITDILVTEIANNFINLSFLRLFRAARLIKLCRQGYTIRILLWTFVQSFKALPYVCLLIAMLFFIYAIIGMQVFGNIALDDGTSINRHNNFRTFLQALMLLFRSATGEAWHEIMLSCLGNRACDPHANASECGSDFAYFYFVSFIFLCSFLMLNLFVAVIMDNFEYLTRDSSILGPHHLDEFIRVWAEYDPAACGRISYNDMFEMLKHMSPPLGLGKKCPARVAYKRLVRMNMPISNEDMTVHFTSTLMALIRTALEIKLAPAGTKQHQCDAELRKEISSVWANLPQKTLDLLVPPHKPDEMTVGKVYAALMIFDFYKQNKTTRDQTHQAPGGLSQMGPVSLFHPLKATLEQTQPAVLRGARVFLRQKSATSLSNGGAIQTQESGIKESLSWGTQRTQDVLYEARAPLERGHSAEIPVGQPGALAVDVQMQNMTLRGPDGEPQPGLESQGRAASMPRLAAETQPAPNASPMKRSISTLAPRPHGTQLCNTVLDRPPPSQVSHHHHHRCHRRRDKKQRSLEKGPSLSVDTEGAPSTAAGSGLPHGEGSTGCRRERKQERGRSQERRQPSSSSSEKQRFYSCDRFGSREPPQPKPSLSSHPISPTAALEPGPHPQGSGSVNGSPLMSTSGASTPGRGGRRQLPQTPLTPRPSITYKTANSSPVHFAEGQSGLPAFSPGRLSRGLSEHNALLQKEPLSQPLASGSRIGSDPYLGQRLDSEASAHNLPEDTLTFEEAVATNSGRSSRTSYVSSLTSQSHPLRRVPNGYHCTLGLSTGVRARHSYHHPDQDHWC

SMILES | pIC50 [1, 3] | pIC50 [2, 4] | pIC50 [2, 5] | pIC50 [1, 6] | IC50 at −100 mV ([2]; non-inactivating protocol, pre-pulse −100 mV (resting block))
O=C(CC(c1ccccc1)c1ccccc1)NCC1CCN(C(c2ccccc2)c2ccccc2)C1 (stereo not shown) [Compound P1] | 7.21 |  |  |  | 
O=C(CC(c1ccccc1)c1ccccc1)N1CCC(CNC(c2ccccc2)c2ccccc2)C1 (stereo not shown) [Compound P2] | 5.97 | 7.28 | 6.49 | 6.08 | 
COc1cc(C(=O)NCC2CCN(C(=O)CCCCC(c3ccc(F)cc3)c3ccc(F)cc3)C2)cc(OC)c1OC (stereo not shown) [Compound P3] | 6.38 |  | 7.07 |  | 
COc1cc(CNCC2CCN(CCCCCC(c3ccc(F)cc3)c3ccc(F)cc3)C2)cc(OC)c1OC (stereo not shown) [Compound P4] | 6.40 |  |  |  | 
COc1cc(C(=O)N2CCC(CNC(=O)CCCCC(c3ccc(F)cc3)c3ccc(F)cc3)C2)cc(OC)c1OC (stereo not shown) [Compound P5] | 7.23 |  |  |  | No effect
COc1cc(CN2CCC(CNCCCCCC(c3ccc(F)cc3)c3ccc(F)cc3)C2)cc(OC)c1OC (stereo not shown) [Compound P6] | 6.67 |  |  |  | 
CC(C)(C)c1cc(C(=O)NCC2CCN(C(=O)CCCCC(c3ccc(F)cc3)c3ccc(F)cc3)C2)cc(C(C)(C)C)c1O (stereo not shown) [Compound P7] | 7.31 |  |  |  | 
CC(C)(C)c1cc(CNCC2CCN(CCCCCC(c3ccc(F)cc3)c3ccc(F)cc3)C2)cc(C(C)(C)C)c1O (stereo not shown) [Compound P8] | 7.46 |  |  |  | 
CC(C)(C)c1cc(C(=O)N2CCC(CNC(=O)CCCCC(c3ccc(F)cc3)c3ccc(F)cc3)C2)cc(C(C)(C)C)c1O (stereo not shown) [Compound P9] | 7.82 |  |  |  | 
COc1c(C(C)(C)C)cc(C(=O)N2CCC(CNC(=O)CCCCC(c3ccc(F)cc3)c3ccc(F)cc3)C2)cc1C(C)(C)C (stereo not shown) [Compound P11] | 8.00 |  | 7.57 |  | 
COc1c(C(C)(C)C)cc(CN2CCC(CNCCCCCC(c3ccc(F)cc3)c3ccc(F)cc3)C2)cc1C(C)(C)C (stereo not shown) [Compound P12] | 7.49 |  |  |  | 
COc1c(C(C)(C)C)cc(CNCC2CCN(CCCCCC(c3ccc(F)cc3)c3ccc(F)cc3)C2)cc1C(C)(C)C (stereo not shown) [Compound P14] | 7.41 |  |  |  | 
O=C(NCC1CCN(C(=O)CCCCC(c2ccc(F)cc2)c2ccc(F)cc2)C1)c1cc(Br)c(O)c(Br)c1 (stereo not shown) [Compound P15] | < 6.00 |  | < 5.00 |  | 
CC(C)(C)c1cc(CNCC2CCN(CCCCCC(c3ccc(F)cc3)c3ccc(F)cc3)C2)cc(C(C)(C)C)c1 (stereo not shown) [Compound P18] | 7.55 |  |  |  | 
COc1c(C(C)(C)C)cc(C(=O)NCC2CCN(CCCCCC(c3ccc(F)cc3)c3ccc(F)cc3)C2)cc1C(C)(C)C (stereo not shown) [Compound P19] |  |  | 7.15 |  | 
COc1cc(C(=O)NCC2CCN(CCCCCC(c3ccc(F)cc3)c3ccc(F)cc3)C2)cc(OC)c1OC (stereo not shown) [Compound P20] | 6.35 |  |  | 6.55 | 
O=C(NCC1CCN(CCCCCC(c2ccc(F)cc2)c2ccc(F)cc2)C1)c1cc(C(F)(F)F)cc(C(F)(F)F)c1 (stereo not shown) [Compound P21] | 6.68 |  |  | 6.82 | 
CN(C)CCOc1c(C(C)(C)C)cc(C(=O)N2CCC(CNC(=O)CCCCC(c3ccc(F)cc3)c3ccc(F)cc3)C2)cc1C(C)(C)C (stereo not shown) [Compound P23] | 6.39 |  |  | 6.70 | 

SMILES | pIC50 [1, 3] | pIC50 [2, 4] | pIC50 [2, 5] | pIC50 [1, 6] | IC50 at −100 mV ([2]; non-inactivating protocol, pre-pulse −100 mV (resting block))
O=C(CC(c1ccccc1)c1ccccc1)NCC1CCN(C(c2ccccc2)c2ccc(Cl)cc2)C1 (stereo not shown) [Compound P26] | 6.58 | 7.38 | 6.86 | 6.63 | 
O=C(COc1ccc(F)cc1F)NCC1CCN(C(=O)CCCCC(c2ccc(F)cc2)c2ccc(F)cc2)C1 (stereo not shown) [Compound P31] | 6.25 | 6.71 | 6.34 | 6.66 | 
O=C(COc1ccc(Cl)cc1)NCC1CCN(C(=O)CCCCC(c2ccc(F)cc2)c2ccc(F)cc2)C1 (stereo not shown) [Compound P36] | 7.00 | 7.92 | 7.52 | 7.70 | 
O=C(CC(c1ccccc1)c1ccccc1)NCC1CCN(C(c2ccccc2)c2ccccc2Cl)C1 (stereo not shown) [Compound P37] | 7.64 | 7.55 | 6.95 | 8.10 | 
O=C(CC(c1ccccc1)c1ccccc1)NCC1CCN(C(c2ccccc2)c2cccc(Cl)c2)C1 (stereo not shown) [Compound P38] | 7.10 | 7.68 | 7.03 | 7.62 | 
O=C(CC(c1ccccc1)c1ccccc1)NCC1CCN(C(c2ccccc2)c2ccc(C(F)(F)F)cc2)C1 (stereo not shown) [Compound P39] | 6.75 | 8.52 | 7.92 | 6.59 | 
Cc1cc(C)cc(NCC(=O)NCC2CCN(C(=O)CCCCC(c3ccc(F)cc3)c3ccc(F)cc3)C2)c1 (stereo not shown) [Compound P40] | 7.72 | 6.98 | 6.48 | 8.52 | 
COc1c(C(C)(C)C)cc(C(=O)NCC2CCN(C(=O)CCCCC(c3ccc(F)cc3)c3ccc(F)cc3)C2)cc1C(C)(C)C (stereo not shown) [Compound P42] |  | 7.23 | 7.03 |  | 
CC(C)(C)c1cc(C(=O)NCC2CCN(C(=O)CCCCC(c3ccc(F)cc3)c3ccc(F)cc3)C2)cc(C(C)(C)C)c1 (stereo not shown) [Compound P44] | 6.58 | 7.54 | 7.28 | 6.92 | 
O=C(CN(c1ccccc1)c1ccccc1)NCC1CCN(C(c2ccccc2)c2ccccc2)C1 (stereo not shown) [Compound P45] | 6.29 | 7.17 | 6.39 | 6.61 | 
O=C(CN(CC(=O)N(c1ccccc1)c1ccccc1)CC1CCN(C(c2ccccc2)c2ccccc2)C1)N(c1ccccc1)c1ccccc1 (stereo not shown) [Compound P46] | 8.15 | 8.30 | 7.64 | 9.00 | 
O=C(CC(c1ccc(F)cc1)c1ccc(F)cc1)NCC1CCN(C(c2ccccc2)c2ccc(F)cc2)C1 (stereo not shown) [Compound P50] | 7.12 |  |  | 7.28 | 
O=C(CC(c1ccc(F)cc1)c1ccc(F)cc1)NCC1CCN(C(c2ccccc2)c2ccccc2)C1 (stereo not shown) [Compound P51] | 7.14 |  |  | 7.25 | 
CC(C)(C)c1ccc(C(c2ccccc2)N2CCC(CNC(=O)CC(c3ccc(F)cc3)c3ccc(F)cc3)C2)cc1 (stereo not shown) [Compound P52] | 6.87 |  |  | 6.96 | 
CN(CC1CCN(C(c2ccccc2)c2ccccc2)C1)C(=O)CC(c1ccccc1)c1ccccc1 (stereo not shown) [Compound P53] | 6.65 |  |  | 6.80 | 
CN(CCC(c1ccccc1)c1ccccc1)CC1CCN(C(c2ccccc2)c2ccccc2)C1 (stereo not shown) [Compound P56] | 6.86 |  |  | 7.04 | 
COc1cc(C(=O)N2CCC(CN(C)CCCCCC(c3ccc(F)cc3)c3ccc(F)cc3)C2)cc(OC)c1OC (stereo not shown) [Compound P63] | 6.42 |  |  | 6.48 | 

Reference: US7244758B2, “N-type calcium channel blockers” (Neuromed Pharmaceuticals Ltd., priority 2003, dated 2007)
